What was measured:
Assay in all cases: Weeding effect in post-emergence stage (greenhouse pot spray)
Assay type in all cases: in vivo
[1] = system: Digitaria sanguinalis
From the text: (§1) The activity level criteria for plant damage (i.e., growth control rate) are as follows:
(§2) The above growth control rates are fresh weight control rates.
(§3) Experiment on weeding effect in post-emergence stage: monocotyledonous and dicotyledonous weed seeds (Descurainia sophia, Capsella bursa-pastoris, Abutilon theophrasti, Galium aparine, Stellaria media, Lithospermum arvense, rorippa indica, Alopecurus aequalis, Beckmannia syzigachne, Sclerochloa dura, Phleum paniculatum, Bromus japonicus, Aegilops tauschii, Phalaris arundinacea, Amaranthus retroflexus, Chenopodiaceae, Commelina communis, Sonchus arvensis, convolvulus arvensis, Cirsium setosum, Solanum nigrum, Acalypha australis, Digitaria sanguinalis, Echinochloa crusgalli, Setaria viridis, Setaria glauca, Leptochloa chinensis, Monochoria vaginalis, Sagittaria trifolia, Scirpus juncoides, Cyperus rotundus, Cyperus iria, Cyperus difformis, Fimbristylis, Portulaca oleracea, Xanthium sibiricum, Pharbitis nil) and major crop seeds (wheat, corn, rice, soybean, cotton, oilseed rape, millet, sorghum, potato, sesame, ricinus) were placed in plastic pots filled with soil, then covered with 0.5-2 cm of soil, allowed to grow in a good greenhouse environment. After 2 weeks of sowing, the test plants were treated in the 2 to 3 leaf stage. The tested compounds of the present invention were respectively dissolved in acetone, then added with Tween 80 and 1.5 liter/ha of emulsifiable concentrate of methyl oleate as synergist, diluted with a certain amount of water to obtain a solution with a certain concentration, and sprayed with a spray tower onto the plants. After the application, the plants were cultured for 3 weeks in the greenhouse, and then the experimental results of the weeding were counted. […]

[2] = system: Echinochloa crusgalli
From the text: as §1, §2, §3

[3] = system: Setaria viridis
From the text: as §1, §2, §3

[4] = system: Abutilon theophrasti; conditions: Table 3, dose 60 g a.i./ha
From the text: as §1, §2, §3

| Structure (SMILES) | Digitaria sanguinahs (activity level) ([1]; Table 3, dose 500 g a.i./ha) | Echinochloa crusgali (activity level) ([2]; Table 3, dose 500 g a.i./ha) | Setaria viridis (activity level) ([3]; Table 3, dose 500 g a.i./ha) | other results |
| --- | --- | --- | --- | --- |
| CCC[S@@+]([O-])c1c(C(F)(F)F)ccc(C(=O)Nc2nnc(C(C)C)o2)c1F [6-8 (R-configuration)] | – | – | – | Digitaria sanguinahs (activity level) ([1]; Table 3, dose 250 g a.i./ha): 5 (Level 5: growth control rate is above 85%); Echinochloa crusgali (activity level) ([2]; Table 3, dose 250 g a.i./ha): 5 (Level 5: growth control rate is above 85%); Setaria viridis (activity level) ([3]; Table 3, dose 250 g a.i./ha): 5 (Level 5: growth control rate is above 85%) |
| COC(C)C[S@+]([O-])c1c(C(F)(F)F)ccc(C(=O)Nc2nnc(C)o2)c1F (stereo partly drawn) [1-447 (R-configuration)] | 5 (Level 5: growth control rate is above 85%) | 5 (Level 5: growth control rate is above 85%) | 5 (Level 5: growth control rate is above 85%) | – |
| Cc1nnc(NC(=O)c2ccc(C(F)(F)F)c([S@@+]([O-])CCC(F)(C(F)(F)F)C(F)(F)F)c2F)o1 [1-413 (R-configuration)] | 5 (Level 5: growth control rate is above 85%) | 5 (Level 5: growth control rate is above 85%) | 5 (Level 5: growth control rate is above 85%) | – |
| Cc1nnc(NC(=O)c2ccc(C(F)(F)F)c([S@@+]([O-])CC(C)F)c2F)o1 (stereo partly drawn) [1-404 (R-configuration)] | – | – | – | Digitaria sanguinahs (activity level) ([1]; Table 3, dose 60 g a.i./ha): 5 (Level 5: growth control rate is above 85%); Echinochloa crusgali (activity level) ([2]; Table 3, dose 60 g a.i./ha): 5 (Level 5: growth control rate is above 85%); Setaria viridis (activity level) ([3]; Table 3, dose 60 g a.i./ha): 5 (Level 5: growth control rate is above 85%) |
| CC(C)[S@+]([O-])c1c(C(F)(F)F)ccc(C(=O)Nc2nnco2)c1F [3-11 (R-configuration)] | – | – | – | Digitaria sanguinahs (activity level) ([1]; Table 3, dose 125 g a.i./ha): 5 (Level 5: growth control rate is above 85%); Echinochloa crusgali (activity level) ([2]; Table 3, dose 125 g a.i./ha): 5 (Level 5: growth control rate is above 85%); Setaria viridis (activity level) ([3]; Table 3, dose 125 g a.i./ha): 5 (Level 5: growth control rate is above 85%) |
| CC(=O)C[S@@+]([O-])c1c(C(F)(F)F)ccc(C(=O)Nc2nnc(C)o2)c1F [1-552 (R-configuration)] | – | – | – | Digitaria sanguinahs (activity level) ([1]; Table 3, dose 125 g a.i./ha): 5 (Level 5: growth control rate is above 85%); Echinochloa crusgali (activity level) ([2]; Table 3, dose 125 g a.i./ha): 5 (Level 5: growth control rate is above 85%); Setaria viridis (activity level) ([3]; Table 3, dose 125 g a.i./ha): 5 (Level 5: growth control rate is above 85%) |
| CC(C)C[S@@+]([O-])c1c(C(F)(F)F)ccc(C(=O)Nc2nnco2)c1F [3-20 (R-configuration)] | – | – | – | Digitaria sanguinahs (activity level) ([1]; Table 3, dose 125 g a.i./ha): 5 (Level 5: growth control rate is above 85%); Echinochloa crusgali (activity level) ([2]; Table 3, dose 125 g a.i./ha): 5 (Level 5: growth control rate is above 85%); Setaria viridis (activity level) ([3]; Table 3, dose 125 g a.i./ha): 5 (Level 5: growth control rate is above 85%) |
| CC#CC[S@+]([O-])c1c(C(F)(F)F)ccc(C(=O)Nc2nnc(C)o2)c1F [1-402 (R-configuration)] | 5 (Level 5: growth control rate is above 85%) | 5 (Level 5: growth control rate is above 85%) | 5 (Level 5: growth control rate is above 85%) | – |
| CCOCC[S@+]([O-])c1c(C(F)(F)F)ccc(C(=O)Nc2nnc(C)o2)c1F [1-446 (R-configuration)] | 5 (Level 5: growth control rate is above 85%) | 5 (Level 5: growth control rate is above 85%) | 5 (Level 5: growth control rate is above 85%) | – |
| Cc1nnc(NC(=O)c2ccc(C(F)(F)F)c([S@@+]([O-])CCC3CC3)c2F)o1 [1-395 (R-configuration)] | 5 (Level 5: growth control rate is above 85%) | 5 (Level 5: growth control rate is above 85%) | 5 (Level 5: growth control rate is above 85%) | – |
| CCC(C)[S+]([O-])c1c(C(F)(F)F)ccc(C(=O)Nc2nnc(C)o2)c1F (mixture of isomers) [Compound 1-17] | – | – | – | Abutilon theophrasti (activity level) [4]: 5 (Level 5: growth control rate is above 85%); Digitaria sanguinahs (activity level) ([1]; Table 3, dose 60 g a.i./ha): 5 (Level 5: growth control rate is above 85%); Setaria viridis (activity level) ([3]; Table 3, dose 60 g a.i./ha): 5 (Level 5: growth control rate is above 85%) |
| Cc1nnc(NC(=O)c2ccc(C(F)(F)F)c([S@@+]([O-])CCCN)c2F)o1 [1-432 (R-configuration)] | 5 (Level 5: growth control rate is above 85%) | 5 (Level 5: growth control rate is above 85%) | 5 (Level 5: growth control rate is above 85%) | – |
